Here are results for eight compounds from paper PMC8305912, “The HDAC/HSP90 Inhibitor G570 Attenuated Blue Light-Induced Cell Migration in RPE Cells and Neovascularization in Mice through Decreased VEGF Production” (Molecules, 2021).

For one experiment, the target named is T1, Hsp90α (Homo sapiens, UniProt P07900).
T1 construct: purchased BPS Bioscience
Put plainly: Heat shock protein (Hsp) 90α activity assay (fluorescence polarization, FITC-labeled geldanamycin). Format: binding. As to conditions: read-out: HSP90 IC50.

Experiment [1] concerns laser-induced choroidal neovascularization (CNV). Nature of the experiment: Laser-induced choroidal neovascularization (CNV) model, fundus fluorescein angiography. In kind it is in vivo, C57BL/6 mice. Particulars: day 7, vs vehicle; G570 20 mg/kg/day i.p. days 0, 1, 3, 5; Eylea 40 μg/1 μL per eye i.v.t. day 0.
Experiment [2] has as its system HeLa nuclear extract HDAC. Nature of the experiment: HeLa nuclear extract HDAC activity assay. Format: biochemical. As to conditions: HeLa nuclear extract as HDAC source.

With `CC(C)c1cc(C(=O)N2CCc3cc(NC(=O)CCCCCCCC(=O)NO)ccc32)c(O)cc1O` [Compound 6, N1-(1-(2,4-dihydroxy-5-isopropylbenzoyl)indolin-5-yl)-N9-hydroxynonanediamide], on Hsp90α, the IC50 was found to be 52.1 ± 2.9 nM.

With `CC(C)c1cc(C(=O)N2CCc3cc(NC(=O)CCCCCCCCC(=O)NO)ccc32)c(O)cc1O` [Compound 7, N1-(1-(2,4-dihydroxy-5-isopropylbenzoyl)indolin-5-yl)-N10-hydroxydecanediamide], the IC50 on Hsp90α is 58.6 ± 2.2 nM.

Turning to `CC(C)c1cc(C(=O)N2CCc3cc(NC(=O)CCCC(=O)NO)ccc32)c(O)cc1O` [Compound 2, N1-(1-(2,4-dihydroxy-5-isopropylbenzoyl)indolin-5-yl)-N5-hydroxyglutaramide], on Hsp90α, the IC50 was 55.9 ± 3.2 nM. On to `CC(C)c1cc(C(=O)N2CCc3cc(NC(=O)CCCCCC(=O)NO)ccc32)c(O)cc1O` [Compound 4, N1-(1-(2,4-dihydroxy-5-isopropylbenzoyl)indolin-5-yl)-N7-hydroxyheptanediamide], for which the IC50 at Hsp90α came out at 40.2 ± 5.2 nM. Same read-out and setting: in the case of `O=C(CCCCCCC(=O)Nc1ccccc1)NO` [SAHA, reference compound] it was more than 1000 nM. As for aflibercept [Eylea], the “laser-induced leakage area of fluorescein (FFA)” value in experiment [1] is reported as “significantly decreased”. For the compound `CC(C)c1cc(C(=O)N2CCc3cc(NC(=O)CCC(=O)NO)ccc32)c(O)cc1O` [Compound 1, N1-(1-(2,4-dihydroxy-5-isopropylbenzoyl)indolin-5-yl)-N4-hydroxysuccinamide], the half-maximal inhibitory concentration (IC50) at Hsp90α turned out to be 49.3 ± 1.6 nM.

Compound `COc1c(C)cnc(Cn2cnc3c(Cl)nc(N)nc32)c1C` [BIIB021] returned a half-maximal inhibitory concentration (IC50) in experiment [2] of more than 1000 nM.

The term IC50 denotes the point on the concentration scale where inhibition reaches its midpoint.
